From publication PMC6368403, “Identification of a bilirubin receptor that may mediate a component of cholestatic itch” (eLife, 2019)
Values joined by “and” are separate entries in the source; they are usually repeats but may differ in a detail not shown here. Equal entries are not always repeated.

How the values were obtained:
MRGPRX4 = target: T1, MRGPRX4 (Homo sapiens, UniProt Q96LA9); experiment: Ca2+ imaging and concentration-Ca2+ response (EC50) in HEK293 cells expressing MRGPRX4; type: cell-based; conditions: for Ca2+ response (concentration-response curve): MRGPRX4, triplicate wells (Fig 2I)
T1 construct: expressed in transfected cells
T1 sequence (Q96LA9 whole entry): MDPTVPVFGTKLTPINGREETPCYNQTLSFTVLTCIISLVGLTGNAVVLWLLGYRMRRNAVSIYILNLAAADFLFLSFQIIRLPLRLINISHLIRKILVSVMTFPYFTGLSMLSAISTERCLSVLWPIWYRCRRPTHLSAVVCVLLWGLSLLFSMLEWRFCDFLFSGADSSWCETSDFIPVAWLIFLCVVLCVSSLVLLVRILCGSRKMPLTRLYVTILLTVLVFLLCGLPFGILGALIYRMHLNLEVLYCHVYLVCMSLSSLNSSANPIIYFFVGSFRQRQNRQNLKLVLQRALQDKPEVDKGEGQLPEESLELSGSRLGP
Procedure: (§1) All cultured cells were maintained in DMEM supplemented with 10% FBS and 1% Penicillin/Streptomycin at 37°C, 5% CO2. All data included were generated from cells tested for mycoplasma and found to be negative. Cells were imaged in calcium imaging buffer (CIB; 10 mM HEPES, 1.2 mM NaHCO3, 130 mM NaCl, 3 mM KCl, 2.5 mM CaCl2, 0.6 mM MgCl2, 20 mM glucose, and 20 mM sucrose at pH 7.4 and 290–300 mOsm). To monitor changes in intracellular [Ca^2+] ([Ca^2+]i), cells were loaded with either Fura 2-AM (HEK293 cells) or Fluo 4-AM (DRG neurons and mast cells) for 30 min in the dark at 37°C in CIB just prior to imaging. With Fura 2-AM, emission at 510 nm was monitored from excitation at both 340 nm and 380 nm. With Fluo 4-AM, emission at 520 nm was monitored from excitation at 488 nm. Cells were identified as responding if the intracellular [Ca^2+] rose by either 50% compared to baseline or 50% compared to the [Ca^2+]i change assayed during addition of 50 mM KCl (neurons only). Damaged, detached, high-baseline, and motion-activated cells were excluded from analysis.
(§2) In initial screens, HEK293 cells stably expressing the murine G-protein alpha-subunit Gα15, a unique Gα protein that non-selectively couples a large variety of GPCRs to phospholipase C ^30, were plated on poly-D-lysine-coated coverslips and transiently transfected with constructs encoding the MRGRPR of interest. 12–24 hr later, cells were loaded with the Fura 2-AM. Unless otherwise specified, compounds were perfused into the imaging chamber for approximately thirty seconds after a baseline period was established. Response was then monitored at 5 s intervals for an additional 60 s.
(§3) HEK293 cells stably expressing either MRGPRA1, MRGPRX4, and MRGRPC11 were seeded in poly-D-lysine-coated 96-well plates at 10,000 cells/well. Cells were loaded with Fura 2–AM, washed twice, and maintained in CIB. Haem metabolites were freshly dissolved in DMSO in dim light and then diluted into a buffer comprised of 20 mM Tris and 150 mM NaCl at pH 8.8. Potential changes in pH were evaluated prior to each experiment. EC50 values were determined from dose-responses performed in triplicate, repeated 2–4 times. To determine potential antagonism by QWF against bilirubin, cells were treated with varying doses of QWF for 1 min in CIB prior to application of agonist.
(§4) HEK293 stable cell lines expressing GFP-tagged MRGPRA3, MRGPRC11, MRGPRD, MRGPRX1, and MRGPRX2 were generated in previously described reports ([Liu et al., 2009]; [Liu et al., 2012]; [McNeil et al., 2015]). Briefly, plasmids containing the receptor of interest were transfected into HEK cells using Lipofectamine 3000. After 3 days, cells were then selected using 0.5 mg/mL G418. After 3 weeks, monoclonal colonies were established and each the highest expressing clones were identified. For this study, Mrgpra1 and MRGPRX4 were inserted into pEGFP-N1 and transfected into HEK293 cells. MRGPR-positive cells were selected using 0.5 mg/mL G418 for three weeks, after which GFP-positive cells were sorted by FACS and monoclonally expanded. Two lines expressing similar levels of MRGPRA1 and MRGPRX4, as measured by GFP fluorescence, were selected for study.

MRGPRA1 [1] = target: T2, MRGPRA1 (Mus musculus, UniProt Q91WW5); experiment: Microscale thermophoresis binding to MRGPRA1; set-up: Transformed binding isotherm (mean of three experiments): unit not given here; conditions: MRGPRA1 (Fig 2E)
T2 construct: expressed in transfected cells
T2 sequence (Q91WW5 1-304): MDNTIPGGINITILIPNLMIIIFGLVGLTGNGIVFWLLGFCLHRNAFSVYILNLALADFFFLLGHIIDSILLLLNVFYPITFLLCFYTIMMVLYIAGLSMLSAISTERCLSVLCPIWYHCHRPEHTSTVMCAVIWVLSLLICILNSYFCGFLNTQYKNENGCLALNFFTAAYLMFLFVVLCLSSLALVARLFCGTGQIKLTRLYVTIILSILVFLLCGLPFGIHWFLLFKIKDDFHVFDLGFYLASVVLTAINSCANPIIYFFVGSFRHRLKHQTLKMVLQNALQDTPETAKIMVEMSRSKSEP
Procedure: Binding isotherms for MRGPRA1, MRGPRX4, and MRGRPC11 towards various ligands were determined by microscale thermophoresis with the NanoTemper monolith NT.115 instrument ([Duhr and Braun, 2006]). Ligands were pre-incubated with 10 µM of the GFP-tagged receptor of interest for 5 min at room temperature in binding buffer (20 mM Tris and 150 mM NaCl at pH 8.8). Receptors were crudely purified as a membrane fraction from cells stably expressing the receptor ([Vasavda et al., 2017]). Haem metabolites were freshly dissolved in 0.1 M NaOH in dim light and then diluted into assay buffer. Lyophilized BAM8-22 was dissolved in binding buffer. The pH of each ligand was evaluated prior to incubation with a receptor. Samples were loaded into NT.115 Hydrophobic-Treated Capillaries from NanoTemper. Microscale thermophoretic experiments were executed using 20% LED power and 15% MST power. KDs were calculated using the law of mass action with data from three independent experiments. Binding between bilirubin and receptors was evaluated purely thermophoretically, whereas binding between BAM8-22 and MRGPRC11 was evaluated by T-Jump. Samples with dramatic deviations in initial fluorescence were excluded.

MRGPRA1 [2] = target: T2, MRGPRA1; experiment: Ca2+ imaging and concentration-Ca2+ response (EC50) in HEK293 cells expressing MRGPRA1; type: cell-based; set-up: Ca2+ response: unit not given here; conditions: for Ca2+ response (concentration-response curve): MRGPRA1, triplicate wells (Fig 2D); for Ca2+ response: bilirubin, 3 replicate columns
Procedure: as §1, §2, §3, §4

Calcium response / activation of MRGPRX4-expressing cells (MRGPRX4): only MRGPRX4-expressing cells responded
Ca2+ response (concentration-response curve) (MRGPRX4; [Ligand] 1.95313e-6 M): 0.6657 and 0.5292 and 0.882
Ca2+ response (concentration-response curve) (MRGPRX4; [Ligand] 3.90625e-6 M): 0.5596 and 0.9735 and 0.9102
Ca2+ response (concentration-response curve) (MRGPRX4; [Ligand] 7.8125e-6 M): 0.7828 and 0.7465 and 0.8173
Ca2+ response (concentration-response curve) (MRGPRX4; [Ligand] 1.5625e-5 M): 0.5886 and 0.7131 and 0.5739
Ca2+ response (concentration-response curve) (MRGPRX4; [Ligand] 3.125e-5 M): 0.9259 and 0.9222 and 0.8162
Ca2+ response (concentration-response curve) (MRGPRX4; [Ligand] 6.25e-5 M): 1.178 and 1.234 and 1.122
Ca2+ response (concentration-response curve) (MRGPRX4; [Ligand] 0.000125 M): 1.451 and 1.464 and 1.382
Ca2+ response (concentration-response curve) (MRGPRX4; [Ligand] 0.00025 M): 1.643 and 1.595 and 1.524
Transformed binding isotherm (mean of three experiments) (MRGPRA1 [1]; [Ligand] 3.05e-8 M): 6.015
Transformed binding isotherm (mean of three experiments) (MRGPRA1 [1]; [Ligand] 6.1e-8 M): 5.1124
Transformed binding isotherm (mean of three experiments) (MRGPRA1 [1]; [Ligand] 1.221e-7 M): 3.41
Transformed binding isotherm (mean of three experiments) (MRGPRA1 [1]; [Ligand] 2.441e-7 M): 3.271
Transformed binding isotherm (mean of three experiments) (MRGPRA1 [1]; [Ligand] 4.883e-7 M): -3.226
Transformed binding isotherm (mean of three experiments) (MRGPRA1 [1]; [Ligand] 9.766e-7 M): -3.391
Transformed binding isotherm (mean of three experiments) (MRGPRA1 [1]; [Ligand] 1.9531e-6 M): 7.109
Transformed binding isotherm (mean of three experiments) (MRGPRA1 [1]; [Ligand] 7.8125e-6 M): 1.334
Transformed binding isotherm (mean of three experiments) (MRGPRA1 [1]; [Ligand] 1.5625e-5 M): 2.3419
Transformed binding isotherm (mean of three experiments) (MRGPRA1 [1]; [Ligand] 3.125e-5 M): 16.9295
Transformed binding isotherm (mean of three experiments) (MRGPRA1 [1]; [Ligand] 6.25e-5 M): 43.5974
Transformed binding isotherm (mean of three experiments) (MRGPRA1 [1]; [Ligand] 0.000125 M): 64.6366
Transformed binding isotherm (mean of three experiments) (MRGPRA1 [1]; [Ligand] 0.00025 M): 80.7081
Transformed binding isotherm (mean of three experiments) (MRGPRA1 [1]; [Ligand] 0.0005 M): 102.789
Transformed binding isotherm (mean of three experiments) (MRGPRA1 [1]; [Ligand] 0.001 M): 103.048
Calcium response / activation of MRGPRA1-expressing cells (MRGPRA1 [2]; 50 µM bilirubin, 30 µM FMRF): exhibited a calcium response
Ca2+ response (concentration-response curve) (MRGPRA1 [2]; [Ligand] 3.90625e-6 M): 1.244 (2×) and 1.27
Ca2+ response (concentration-response curve) (MRGPRA1 [2]; [Ligand] 7.8125e-6 M): 1.285 and 1.272 and 1.244
Ca2+ response (concentration-response curve) (MRGPRA1 [2]; [Ligand] 1.5625e-5 M): 1.239 (2×) and 1.229
Ca2+ response (concentration-response curve) (MRGPRA1 [2]; [Ligand] 3.125e-5 M): 1.214 and 1.216 and 1.186
Ca2+ response (concentration-response curve) (MRGPRA1 [2]; [Ligand] 6.25e-5 M): 1.236 and 1.293 and 1.259
Ca2+ response (concentration-response curve) (MRGPRA1 [2]; [Ligand] 0.000125 M): 1.409 and 1.368 and 1.342
Ca2+ response (concentration-response curve) (MRGPRA1 [2]; [Ligand] 0.00025 M): 1.512 and 1.513 and 1.452
Ca2+ response (concentration-response curve) (MRGPRA1 [2]; [Ligand] 0.0005 M): 1.582 and 1.563 and 1.522
Ca2+ response (MRGPRA1 [2]; [Ligand] (M) -3 (log scale)): 92.1113 and 105.486 and 102.402
Ca2+ response (MRGPRA1 [2]; [Ligand] (M) -3.30103 (log scale)): 69.422 and 70.1483 and 63.5847
Ca2+ response (MRGPRA1 [2]; [Ligand] (M) -3.60206 (log scale)): 71.8089 and 75.8019 and 75.1545
Ca2+ response (MRGPRA1 [2]; [Ligand] (M) -3.90309 (log scale)): 61.2591 and 54.8317 and 55.4389
Ca2+ response (MRGPRA1 [2]; [Ligand] (M) -4.20412 (log scale)): 49.8998 and 18.4414 and 32.057
Ca2+ response (MRGPRA1 [2]; [Ligand] (M) -4.50515 (log scale)): 6.418 and 7.051 and 1.245
Ca2+ response (MRGPRA1 [2]; [Ligand] (M) -4.80618 (log scale)): 27.9538 and 0 (2×)
Ca2+ response (MRGPRA1 [2]; [Ligand] (M) -5.10721 (log scale)): 34.8054 and 0 (2×)
Compound: C=CC1=C(C)/C(=C/c2[nH]c(Cc3[nH]c(/C=C4\NC(=O)C(C)=C4C=C)c(C)c3CCC(=O)O)c(CCC(=O)O)c2C)NC1=O [bilirubin, bilirubin IXα]
